System: Brassica napus
Assay: Drought stress greenhouse test Part C, visual scoring vs stressed control plants
Type: in vivo
Details: spray application 25 g/ha, efficacy range of 3-4 pots
Experimental: Seeds of monocotyledonous and dicotyledonous crop plants were sown in sandy loam in plastic or wood-fiber pots, covered with soil or sand and cultivated in a greenhouse under good growth conditions. The trial plants were treated at the early leaf stage (BBCH10-BBCH13). To assure uniform water supply before commencement of stress, the potted plants were supplied with water by dam irrigation prior to substance application. The inventive compounds were first formulated as wettable powders (WP) or dissolved in a solvent mixture. The further dilution was effected with water supplemented with 0.2% wetting agent (e.g. agrotin). The finished spray liquor was sprayed onto the green parts of the plant at an equivalent water application rate of 600 l/ha. Substance application was followed immediately by stress treatment of the plants. For this purpose, the wood-fiber pots were transferred in plastic inserts in order to prevent them from subsequently drying out too quickly. Drought stress was induced by gradual drying out under the following conditions: “Day”: 14 hours with illumination at 26-30° C. […] Once this juncture had been reached, the appearance of the plants treated with test substances was recorded in comparison to the stressed control plants by the following categories: [table] For each substance and dosage, 3-4 pots were treated and evaluated. […]

COC(=O)CCN1C(=O)CCc2cc(NS(=O)(=O)Cc3ccc(F)cc3)ccc21 [A51-158]
Effect (BRSNS): 20-30

— patent publication US20170027172A1, “USE OF SUBSTITUTE OXO TETRAHYDROQUINOLINE SULFONAMIDES OR SALTS THEREOF FOR RAISING STRESS TOLERANCE OF PLANTS” (BAYER CROPSCIENCE AKTIENGESELLSCHAFT, priority 2014, published 2017)
